Paper PMC6191125, “Peptidoglycan potentiates the membrane disrupting effect of the carboxyamidated form of DMS-DA6, a Gram-positive selective antimicrobial peptide isolated from Pachymedusa dacnicolor skin” (PLoS ONE, 2018)
Values after ≈ are worked out from the molar mass of the structure shown. Residues, ends and D or L forms follow the SMILES beside them.

Legend:
E. faecalis ATCC 29212 = type: cell-based, Enterococcus faecalis
Description: (§1) Gram-negative bacterial strains, Escherichia coli ATCC 8739, Escherichia coli ATCC 35218, Escherichia coli ML 35p, Escherichia coli K12, Pseudomonas aeruginosa ATCC 27853, and Gram-positive bacterial strains, Enterococcus faecalis ATCC29212, Kocuria rhizophila ATCC 9341, Staphylococcus aureus ATCC 6538, Staphylococcus aureus ATCC 29213, Staphylococcus aureus ST 1065, Staphylococcus epidermidis BM 3302, and Bacillus subtilis subsp. subtilis CIP 52.65, as well as two multiresistant strains (Staphylococcus aureus DAR 5829 (http://www.ncbi.nlm.nih.gov/bioproject/228435) and Enterococcus faecium BM 4147 [20] were cultured as described previously. The minimal inhibitory concentration (MIC) of the peptides was determined by the microtiter broth dilution method. Overnight precultures were subcultured in Luria Bertani (LB) medium at 37°C with vigorous shaking until mid-log phase (~2h) and diluted to 10^7 cfu/mL. Peptide solutions were prepared at different concentrations (from 2 to 500 μM) by successive 2-fold dilutions in water from 1 mM stock solutions. In each row of a 96-well nonbinding surface plate, 90 μL of bacteria were incubated with 10 μL of peptide solutions for 18 h at 37°C. The final peptide concentrations ranged from 0.2 to 100 μM. Cell growth was evaluated by visual inspection and absorbance at 600 nm to determine the lowest concentration of peptide that prevented cell growth. Wells were either opaque, indicating stationary phase growth, or transparent indicating no growth. The lowest concentration showing no visible growth was considered as the MIC. After measurement of the MIC, the bactericidal activity was determined by the addition of resazurin dye (30 μL, 0.01% w/v) to each well [22]. The plates were further incubated at 37°C for 18 h. Wells in which the dye turned pink indicated live bacteria, whereas wells in which the dye remained blue indicated dead bacteria. The minimal bactericidal concentration (MBC) is the lowest concentration with blue coloration (99.9% of bacteria were killed). Three to five independent assays were performed in triplicate. Positive controls correspond to medium plus 0.2% formaldehyde and negative controls to medium without peptide.

[1] = test system: Ps. aeruginosa ATCC 27853; type: cell-based, Pseudomonas aeruginosa; conditions: LB, 10^7 cfu/mL, 18 h at 37°C, peptide 0.2-100 μM, averaged over >=3 independent experiments in triplicate
Description: as §1, with “Wells were either opaque, indicating stationary phase growth, or transparent indicating no growth. The lowest concentration showing no visible growth was considered as the MIC. After measurement of the MIC, the bactericidal activity was determined by the addition of resazurin dye (30 μL, 0.01% w/v) to each well [22]. The plates were further incubated at 37°C for 18 h. Wells in which the dye turned pink indicated live bacteria, whereas wells in which the dye remained blue indicated dead bacteria. The minimal bactericidal concentration (MBC) is the lowest concentration with blue coloration (99.9% of bacteria were killed). Three to five independent assays were performed in triplicate. Positive controls correspond to medium plus 0.2% formaldehyde and negative controls to medium without peptide.” left out

E. coli ATCC 35218 = type: cell-based, Escherichia coli; conditions: LB, 10^7 cfu/mL, 18 h at 37°C, peptide 0.2-100 μM, averaged over >=3 independent experiments in triplicate
Description: as §1

E. coli K12 = type: cell-based, Escherichia coli; conditions: LB, 10^7 cfu/mL, 18 h at 37°C, peptide 0.2-100 μM, averaged over >=3 independent experiments in triplicate
Description: as §1

E. coli ML 35p = type: cell-based, Escherichia coli; conditions: LB, 10^7 cfu/mL, 18 h at 37°C, peptide 0.2-100 μM, averaged over >=3 independent experiments in triplicate
Description: as §1

E. coli ATCC 8739 = type: cell-based, Escherichia coli
Description: as §1

S. epidermidis BM3302 = type: cell-based, Staphylococcus epidermidis
Description: as §1

K. rhizophila ATCC 9341 = type: cell-based, Kocuria rhizophila
Description: as §1

A549 cells = experiment: Cytotoxicity, trypan blue exclusion; type: cell-based; conditions: A549 human lung carcinoma cells, 2-hour incubation at 37°C, 5% CO2, concentrations as high as 100 μM; 3 independent experiments in triplicate
Procedure: A549 cells (ATCC CCL-185), a human lung carcinoma cell line, were cultivated at 37°C, humid atmosphere and 5% CO2, in Petri dishes with DMEM Advanced medium (Gibco) supplemented with 5% of fetal bovine serum (FBS), 2 mM of glutamine, 100 U of penicillin and 50 μg/mL of streptomycin (Gibco). When the cells reached 80% confluence, the medium was discarded and the cells were washed with PBS 1×, before being treated with Trypsin 1× for 2 minutes to detach them form the culture dish. Cells were then resuspended in DMEM medium, seeded in a 48-well culture plate (500 000 cells/well), and either form of DMS-DA6 solubilized in PBS 1× was added and incubated for 2 hours at 37°C, 5% CO2. DMSO 30% was used as a positive control to induce cell death, and DMEM medium as negative control. After incubation, cell viability was assessed by trypan blue exclusion.

B. subtilis CIP 52.65 = type: cell-based, Bacillus subtilis subsp. subtilis
Description: as §1

S. aureus ATCC 29213 = type: cell-based, Staphylococcus aureus
Description: as §1

S. aureus ST 1065 = type: cell-based, Staphylococcus aureus
Description: as §1

S. aureus ATCC 6538 = type: cell-based, Staphylococcus aureus
Description: as §1

S. aureus DAR 5829 = type: cell-based, Staphylococcus aureus; conditions: S. aureus DAR 5829, multi-resistant strain
Description: as §1

E. faecium BM 4147 = type: cell-based, Enterococcus faecium; conditions: E. faecium BM 4147, multi-resistant strain
Description: as §1

[2] = LB, 10^7 cfu/mL, 18 h at 37°C, averaged over >=3 independent experiments in triplicate
[3] = resazurin dye added after MIC, further 18 h at 37°C, 99.9% killed, averaged over >=3 experiments in triplicate

In the case of `CC[C@H](C)[C@H](NC(=O)CNC(=O)[C@H](Cc1c[nH]c2ccccc12)NC(=O)[C@@H](NC(=O)CN)C(C)C)C(=O)N[C@@H](C)C(=O)N[C@@H](CCCCN)C(=O)N[C@H](C(=O)N[C@@H](C)C(=O)NCC(=O)N[C@@H](CCCCN)C(=O)N[C@H](C(=O)N[C@@H](CC(C)C)C(=O)NCC(=O)N[C@@H](CC(N)=O)C(=O)N[C@H](C(=O)N[C@@H](CC(C)C)C(=O)N1CCC[C@H]1C(=O)N[C@@H](Cc1c[nH]cn1)C(=O)N[C@H](C(=O)N[C@@H](Cc1ccccc1)C(=O)N[C@@H](CO)C(=O)N[C@@H](CO)C(=O)N[C@@H](CC(N)=O)C(=O)N[C@@H](CCC(N)=O)C(=O)N[C@@H](CO)C(=O)O)C(C)C)[C@@H](C)CC)C(C)C)[C@@H](C)CC` [DMS-DA6-OH] (H-GVWGIAKIAGKVLGNILPHVFSSNQS-OH), the MIC (E. faecalis ATCC 29212; [2]) is reported as 100 µM (≈ 269 µg/mL), the MBC (E. faecalis ATCC 29212; [3]) is reported as 100 µM (≈ 269 µg/mL) and the MIC [1] is reported as >100 µM. For the same compound, the intact peptide remaining was > 90%, the MIC (E. coli ATCC 35218) was >100 µM and the MIC (E. coli K12) was >100 µM. The MIC (E. coli ML 35p) was >100 µM, the MIC (E. coli ATCC 8739; [2]) was 50 µM (≈ 135 µg/mL) and the MBC (E. coli ATCC 8739; [3]) was 100 µM (≈ 269 µg/mL). For the same compound, the MIC (S. epidermidis BM3302; [2]) was 25 µM (≈ 67.3 µg/mL), the MBC (S. epidermidis BM3302; [3]) was 25 µM (≈ 67.3 µg/mL) and the MIC (K. rhizophila ATCC 9341; [2]) was 6.25 µM (≈ 16.8 µg/mL). For the same compound, the MBC (K. rhizophila ATCC 9341; [3]) was 12.5 µM (≈ 33.7 µg/mL), the “death of A549 cells (trypan blue exclusion)” value (A549 cells) was “neither DMS-DA6-OH (net charge +2) nor DMS-DA6-NH2 (net charge +3) resulted in the death” and the MIC (B. subtilis CIP 52.65; [2]) was 12.5 µM (≈ 33.7 µg/mL). For the same compound, the MBC (B. subtilis CIP 52.65; [3]) was 12.5 µM (≈ 33.7 µg/mL), the MIC (S. aureus ATCC 29213; [2]) was 6.25 µM (≈ 16.8 µg/mL) and the MBC (S. aureus ATCC 29213; [3]) was 25 µM (≈ 67.3 µg/mL). The MIC (S. aureus ST 1065; [2]) was 25 µM (≈ 67.3 µg/mL), the MBC (S. aureus ST 1065; [3]) was 25 µM (≈ 67.3 µg/mL) and the MIC (S. aureus ATCC 6538; [2]) was 12.5 µM (≈ 33.7 µg/mL). It also gave an MBC (S. aureus ATCC 6538; [3]) of 12.5 µM (≈ 33.7 µg/mL), an MIC (S. aureus DAR 5829; [2]) of 50 µM (≈ 135 µg/mL) and an MBC (S. aureus DAR 5829; [3]) of 50 µM (≈ 135 µg/mL). It also gave an MIC (E. faecium BM 4147; [2]) of 50 µM (≈ 135 µg/mL) and an MBC (E. faecium BM 4147; [3]) of 100 µM (≈ 269 µg/mL).
